Results taken from patent publication US20260158177A1, “COMPOUNDS SPECIFIC TO GRANZYME B AND USES THEREOF” (CYTOSITE BIOPHARMA INC., priority 2021, published 2026).

Biological target: T1, human granzyme B (Homo sapiens, UniProt P10144)
T1 construct: from tissue; host or cells: human lymphocytes
Assay: Competitive binding assay of human granzyme B with Compound ^18F-21-Al radioligand
Settings: competition with 20 nM Compound ^18F-21-Al, human lymphocyte GZB, 37° C., 90 minutes
Method: Purpose: To perform competitive binding assays with human granzyme B using Compound ^18F-21-Al to determine IC50 values of potential granzyme B ligands
Initial Plate Preparation (including total binding and non-specific binding): • 1. 78 μL of reaction buffer, as described above, is added to each well in a 96 well plate • 2. For wells used to examine total binding (defined as the binding of the radioligand in the absence of competitors), 2 μL of DMSO is added to give 1% final DMSO concentration for all wells • 3. For wells used to examine non-specific binding (defined as the binding of the radioligand in the presence of 10 μM 21), 2 μL of 1 mM Compound 21 is added to give a final concentration of 10 μM
• 1. Granzyme B (GZB, human lymphocyte) is diluted to 0.5 μg/mL using reaction buffer as described above • 2. 100 μL of 0.5 μg/mL diluted human GzB is added to each well, giving 50 ng per well and a final concentration of 0.25 μg/mL
• 1. DMSO or water is added to the respective compound vial to make 1 mM compound stock solution • 2. 1 mM compound stock solution is serially diluted by ½ log (3.16 fold) by adding 18.5 μL of compound stock to 40 μL of DMSO, mixing by pipetting up and down, and transferring 18.5 μL of the mixture to 40 μL of DMSO. This process is repeated to create 10 dilution points for test compounds. • 3. For wells used to examine ligand binding competition, 2 μL of each dilution is dispensed into the 96 well plates prepared as described above, giving a further dilution of 1/100.
• 1. 200 nM of Compound ^18F-21-Al (10× radioligand stock) is prepared in reaction buffer, aiming for approximately 2 million CPM per 20 μL of solution (input). • 2. 20 μL of radioligand stock is dispensed into each well to give a final concentration per well of 20 nM.
• 1. All 96 wells should have a final volume of 200 μL, and the assay plates are incubated at 37° C. for 90 minutes. • 2. All samples from the assay plates are transferred to MultiScreenHTS FB plates that have been presoaked in PBS buffer, pH 7.4, and filtered using a vacuum manifold. An additional 150 μL of PBS buffer is added to each well in the assay plates and combined to ensure transfer of any remaining samples • 3. MultiScreenHTS FB plates are washed 3× with 150 μL of PBS buffer. • 4. All filters are separated and transferred to individual tubes using Multiscreen punch tips and the Millipore multiple punch apparatus • 5. The sample set is analyzed using the Wizard 2480 automatic gamma-counter [Perkin Elmer] through a [^18F]-specific profile. Values are reported as decay-corrected counts per minute (CPM). • 6. Resulting CPM values are normalized and converted to % inhibition by the following equation:
[formula] • *the total bound fraction is typically less than 10% of the added radioligand under such assay conditions. • Resulting % inhibition values were plotted using the software GraphPad Prism 8.4.3 using the One site—Fit log IC50 equation to determine the IC50 value for each ligand.
[formula] • Y=% Inhibition • X=Log concentration of the cold competing ligand (M) • A=minimum Y (0%) • B=maximum Y (100%) • Log IC50=Log concentration of cold competing ligand (M) at half-way between minimum and maximum Y

T1 sequence (P10144 21-247): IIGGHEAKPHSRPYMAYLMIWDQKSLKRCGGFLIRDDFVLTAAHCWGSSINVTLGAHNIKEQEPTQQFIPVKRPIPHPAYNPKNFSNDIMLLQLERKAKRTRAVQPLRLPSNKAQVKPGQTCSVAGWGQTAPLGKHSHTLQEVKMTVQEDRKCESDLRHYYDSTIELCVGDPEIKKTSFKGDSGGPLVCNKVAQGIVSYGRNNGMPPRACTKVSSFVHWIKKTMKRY

Row | Compound | IC50
1 | CC[C@H](C)[C@H](NC(=O)COCCNC(=O)[C@@H](CCC(=O)O)NC(=O)[C@@H](CCC(=O)O)NC(=O)CN1CCN(C(=O)CN2CCN3CCN(CC2)CC(=O)[O][Al]([F])[O]C(=O)C3)CC1)C(=O)N[C@H]1CCc2cccc3c2N(C1=O)[C@H](C(=O)NC1CC(=O)OC1O)C3 (stereo partly drawn) [Compound 10-Al, 2,2′-(7-(2-(4-((4R,7R,16S,17S)-4,7-bis(2-carboxyethyl)-16-(((3S,6S)-6-((2-hydroxy-5-oxotetrahydrofuran-3-yl)carbamoyl)-4-oxo-1,2,3,4,6,7-hexahydroazepino[3,2,1-hi]indol-3-yl)carbamoyl)-17-methyl-2,5,8,14-tetraoxo-12-oxa-3,6,9,15-tetraazanonadecyl)piperazin-1-yl)-2-oxoethyl)-1,4,7-triazonane-1,4-diyl)diacetic acid, aluminum fluoride complex (1:1)] | 3.6 nM
2 | CC[C@H](C)[C@H](NC(=O)COCCOCCNC(=O)COCCOCCNC(=O)[C@@H](CCC(=O)O)NC(=O)CN1CCN(C(=O)CN2CCN3CCN(CC2)CC(=O)[O][Al]([F])[O]C(=O)C3)CC1)C(=O)N[C@H]1CCc2cccc3c2N(C1=O)[C@H](C(=O)NC1CC(=O)OC1O)C3 (stereo partly drawn) [Compound 11-Al, 2,2′-(7-(2-(4-((4R,25S,26S)-4-(2-carboxyethyl)-25-(((3S,6S)-6-((2-hydroxy-5-oxotetrahydrofuran-3-yl)carbamoyl)-4-oxo-1,2,3,4,6,7-hexahydroazepino[3,2,1-hi]indol-3-yl)carbamoyl)-26-methyl-2,5,14,23-tetraoxo-9,12,18,21-tetraoxa-3,6,15,24-tetraazaoctacosyl)piperazin-1-yl)-2-oxoethyl)-1,4,7-triazonane-1,4-diyl)diacetic acid, aluminum fluoride complex (1:1)] | 2.4 nM
3 | CC[C@H](C)[C@H](NC(=O)CCNC(=O)CCNC(=O)[C@@H](CCC(=O)O)NC(=O)CN1CCN(C(=O)CN2CCN3CCN(CC2)CC(=O)[O][Al]([F])[O]C(=O)C3)CC1)C(=O)N[C@H]1CCc2cccc3c2N(C1=O)[C@H](C(=O)NC1CC(=O)OC1O)C3 (stereo partly drawn) [Compound 12-Al, 2,2′-(7-(2-(4-((4R,15S,16S)-4-(2-carboxyethyl)-15-(((3S,6S)-6-((2-hydroxy-5-oxotetrahydrofuran-3-yl)carbamoyl)-4-oxo-1,2,3,4,6,7-hexahydroazepino[3,2,1-hi]indol-3-yl)carbamoyl)-16-methyl-2,5,9,13-tetraoxo-3,6,10,14-tetraazaoctadecyl)piperazin-1-yl)-2-oxoethyl)-1,4,7-triazonane-1,4-diyl)diacetic acid, aluminum fluoride complex (1:1)] | 4.2 nM
4 | CC[C@H](C)[C@H](NC(=O)CCNC(=O)CCNC(=O)CN(CC(=O)O)C(=O)CN1CCN(C(=O)CN2CCN3CCN(CC2)CC(=O)[O][Al]([F])[O]C(=O)C3)CC1)C(=O)N[C@H]1CCc2cccc3c2N(C1=O)[C@H](C(=O)NC1CC(=O)OC1O)C3 (stereo partly drawn) [Compound 13-Al, 2,2′-(7-(2-(4-((15S,16S)-3-(carboxymethyl)-15-(((3S,6S)-6-((2-hydroxy-5-oxotetrahydrofuran-3-yl)carbamoyl)-4-oxo-1,2,3,4,6,7-hexahydroazepino[3,2,1-hi]indol-3-yl)carbamoyl)-16-methyl-2,5,9,13-tetraoxo-3,6,10,14-tetraazaoctadecyl)piperazin-1-yl)-2-oxoethyl)-1,4,7-triazonane-1,4-diyl)diacetic acid, aluminum fluoride complex (1:1)] | 4.2 nM
5 | CC[C@H](C)[C@H](NC(=O)CC[C@@H](NC(=O)CN1CCN(C(=O)CN2CCN3CCN(CC2)CC(=O)[O][Al]([F])[O]C(=O)C3)CC1)C(=O)O)C(=O)N[C@H]1CCc2cccc3c2N(C1=O)[C@H](C(=O)NC1CC(=O)OC1O)C3 (stereo partly drawn) [Compound 14-Al, 2,2′-(7-(2-(4-(2-(((1R)-1-carboxy-4-(((2S,3S)-1-(((3S,6S)-6-((2-hydroxy-5-oxotetrahydrofuran-3-yl)carbamoyl)-4-oxo-1,2,3,4,6,7-hexahydroazepino[3,2,1-hi]indol-3-yl)amino)-3-methyl-1-oxopentan-2-yl)amino)-4-oxobutyl)amino)-2-oxoethyl)piperazin-1-yl)-2-oxoethyl)-1,4,7-triazonane-1,4-diyl)diacetic acid, aluminum fluoride complex (1:1)] | 2.7 nM
6 | CC[C@H](C)[C@H](NC(=O)CCNC(=O)CCNC(=O)[C@H](CC(C(=O)O)C(=O)O)NC(=O)CN1CCN(C(=O)CN2CCN3CCN(CC2)CC(=O)[O][Al]([F])[O]C(=O)C3)CC1)C(=O)N[C@H]1CCc2cccc3c2N(C1=O)[C@H](C(=O)NC1CC(=O)OC1O)C3 (stereo partly drawn) [Compound 15-Al, 2-((2S)-2-(2-(4-(2-(4,7-bis(carboxymethyl)-1,4,7-triazonan-1-yl)acetyl)piperazin-1-yl)acetamido)-3-((3-((3-(((2S,3S)-1-(((3S,6S)-6-((2-hydroxy-5-oxotetrahydrofuran-3-yl)carbamoyl)-4-oxo-1,2,3,4,6,7-hexahydroazepino[3,2,1-hi]indol-3-yl)amino)-3-methyl-1-oxopentan-2-yl)amino)-3-oxopropyl)amino)-3-oxopropyl)amino)-3-oxopropyl) malonic acid, aluminum fluoride complex (1:1)] | 2.5 nM
7 | CC[C@H](C)[C@H](NC(=O)CCNC(=O)CCNC(=O)[C@@H](CCC(=O)O)NC(=O)[C@@H](CCC(=O)O)NC(=O)CN1CCN(C(=O)CN2CCN3CCN(CC2)CC(=O)[O][Al]([F])[O]C(=O)C3)CC1)C(=O)N[C@H]1CCc2cccc3c2N(C1=O)[C@H](C(=O)NC1CC(=O)OC1O)C3 (stereo partly drawn) [Compound 16-Al, 2,2′-(7-(2-(4-((4R,7R,18S,19S)-4,7-bis(2-carboxyethyl)-18-(((3S,6S)-6-((2-hydroxy-5-oxotetrahydrofuran-3-yl)carbamoyl)-4-oxo-1,2,3,4,6,7-hexahydroazepino[3,2,1-hi]indol-3-yl)carbamoyl)-19-methyl-2,5,8,12,16-pentaoxo-3,6,9,13,17-pentaazahenicosyl)piperazin-1-yl)-2-oxoethyl)-1,4,7-triazonane-1,4-diyl)diacetic acid, aluminum fluoride complex (1:1)] | 4.2 nM
8 | CC[C@H](C)[C@H](NC(=O)CC[C@H](NC(=O)CN1CCN(C(=O)CN2CCN3CCN(CC2)CC(=O)[O][Al]([F])[O]C(=O)C3)CC1)C(=O)O)C(=O)N[C@H]1CCc2cccc3c2N(C1=O)[C@H](C(=O)NC1CC(=O)OC1O)C3 (stereo partly drawn) [Compound 17-Al, 2,2′-(7-(2-(4-(2-(((1S)-1-carboxy-4-(((2S,3S)-1-(((3S,6S)-6-((2-hydroxy-5-oxotetrahydrofuran-3-yl)carbamoyl)-4-oxo-1,2,3,4,6,7-hexahydroazepino[3,2,1-hi]indol-3-yl)amino)-3-methyl-1-oxopentan-2-yl)amino)-4-oxobutyl)amino)-2-oxoethyl)piperazin-1-yl)-2-oxoethyl)-1,4,7-triazonane-1,4-diyl)diacetic acid, aluminum fluoride complex (1:1)] | 2.7 nM
